Assay results as given in patent publication US8163709B2, “TAK1-D mediated induction of cell death in human cancer cells by specific sequence short double-stranded RNAS” (Board of Regents of the University of Texas System, priority 2008, dated 2012).
Entries after “also recorded” stand apart in the source; their conditions may differ.

Experiments:
NF-κB = NF-κB activation in H460 cells (EMSA, IKKα/β phosphorylation); assay type: cell-based, human; conditions: hours after transfection (3 h, 6 h)
Experimental: EMSA. Electrophoretic mobility shift assays for NFκB were performed as described previously (Kurland et al., 2001) using 3.5 μg of nuclear protein for each reaction.
FIG. 16B illustrates the effect of dominant-negative TAK1-D/K63W on dsRNA si5 induced cell death. […] As a slight growth inhibition of si5 transfected H460-K63W cells can be observed in FIG. 16B it is interesting to ask whether this is caused by an incomplete suppression of TAK1-D activity or by activation of other dsRNA-dependent stress pathways. To answer this question, the activation of the transcription factor NF-κB by dsRNA si5 was tested, as it well established that dsRNA triggered activation of PKR (Zamanian-Daryoush et al., 2000), TLR3 (Jiang et al., 2003), and RIG1/Mda-5 (Hiscott et al., 2006) leads to a downstream activation of NF-κB.

TLK1 [1] = experiment: TLK1 post-transcriptional silencing in HeLa cells (Western blot); assay type: cell-based, human; conditions: 48 h after transfection
Experimental: In order to test whether dsRNA molecules show the same cellular uptake and stability the efficiency of these molecules to post-transcriptionally silence the expression of TLK1 was determined as si6 as well as si5 siRNA are directed against the mRNA of this protein. […] As a loading control the unchanged expression levels of TAK1-A/B and 3-tubulin are shown in the two lower panels.

TLK1 [2] = experiment: TLK1 protein level in NCI-H460 cells (Western blot); assay type: cell-based, human; conditions: first 6 h after addition
From the text: FIGS. 3A-D illustrate the timecourse as well the downstream signaling events of dsRNA mediated Tak1-D activation in more detail. […] This activation is not triggered by siRNA si6 or by the non-targeting scrambled sequence siNT, even at later timepoints. […] The activation of TAK1-D leads to a phosphorylation of the MAPKKs of both stress activated protein kinase signaling pathways, indicated by the occurrence of activation phosphorylation on MKK3/6 and MKK4 (FIG. 3A). Consecutively activation of MKK3/6 leads to phosphorylation and activation of the p38 MAPK, while activation of MKK4 phosphorylates and activates SAPK/JNK. These mitogen activated protein kinase kinases phosphorylate and activate their respective substrates p38 MAP kinase and SAPK/JNK. […] This provided further confirmation, apart from the rapid occurrence of TAK1-D phosphorylation, that gene silencing effects of the siRNAs play no role in the phenomena described.

p38 = p38 activation in mouse peritoneal macrophages; assay type: cell-based; conditions: 4 h
Experimental: It has been reported (Dempsey et al., 2000) that the splicing variant D of TAK1 could not be detected in many cell lines despite its expression in the parental tissue, most probably due to downregulation of the transcript during in vitro culture. Therefore, the inventors used macrophages 24 h after obtaining them from athymic NCR-NU/NU female mice by peritoneal lavage.

HCC2279 cells = experiment: Crystal Violet staining of HCC2279 cells; assay type: cell-based, human; conditions: 48 h
Experimental: To test whether the dsRNA mediated activation of the stress-activated protein kinase cascade also leads to cell death in HCC2279 cells, the cells were plated in a 12 well multi-well plated, treated with siRNA si5 or as a control with siRNA si6 and stained with Crystal Violet 48 h later. […] The data presented as well as the widespread expression of Tak1-D in tissues like lung, brain, liver, and prostate (Dempsey et al., 2000) makes targeted activation of TAK1-D by specific dsRNA an interesting treatment opportunity for these types of cancer.

H460 cells = experiment: Protein synthesis by [35S] methionine incorporation in H460 cells; assay type: cell-based, human; conditions: for protein synthesis by [35S] methionine incorporation: 4 h
Experimental: On the next day cells were incubated with the dsRNAs for the given amount of time. Ten minutes prior to labeling the cell culture medium was replaced with cystein/methionine free RPMI. Thereafter, cells were incubated for 15 minutes in cystein/methionine free RPMI containing 40 μC/ml [^35S] methionine (Perkin Elmer, Waltham, Mass., USA).
In order to measure the incorporated radionuclide, cells were washed 5 times with 5% TCA, once with 70% ethanol and the proteins were solubilized in SDS-PAGE sample buffer. After addition of the samples to a liquid scintillation cocktail, [^35S] activity was determined in a LS6500 scintillation counter (Beckmann).
For SDS-PAGE cells were washed 3 times with PBS and proteins were solubilized by heating in non reducing sample buffer. After determination of the protein concentration (D protein assay, Bio-Rad, Hercules, Calif., USA) samples were reduced by the addition of DTT to a final concentration of 100 mM and separated in a 4-12% Bis-Tris gradient gel (NuPAGE, Invitrogen). The gel was dried after Coomassie blue staining and autoradiography was performed using a phosphoimager (Typhoon 9410, Amerham).

Row | Substance | activation of NF-κB (EMSA of nuclear protein) (NF-κB) | expression level of TLK1 (TLK1 [1]) | protein levels of Tlk1 (TLK1 [2]) | p38 activation by phosphorylation (p38) | effect on cells, Crystal Violet (HCC2279 cells; HCC2279, 5 nM) | effect on cells, Crystal Violet (HCC2279 cells; HCC2279, 10 to 20 nM) | [35S] methionine incorporation, of its initial value (H460 cells; H460, after 4 hours, scintillation counting) | time until [35S] methionine incorporation significantly reduced (H460 cells; H460, after transfection) [h] | [35S] methionine incorporation, of initial value (H460 cells; H460, within first 4 hours, SDS-PAGE autoradiography) | protein synthesis by [35S] methionine incorporation (H460 cells; TAK1-D/K63W transfected H460, 10 nM) | protein synthesis by [35S] methionine incorporation (H460 cells; wild-type and vector transfected H460, 10 nM) | toxicity, crystal violet (HCC2279 cells; HCC2279, concentration range tested) | inhibition of translation (H460 cells; H460, SDS-PAGE autoradiography) | [35S] methionine incorporation (H460 cells; H460, scintillation counting)
1 | si5: 21-mer siRNA against TLK1 mRNA: GGCUUUUGACCUUUAUGAAtt (SEQ ID NO: 2) / ttCCGAAAACUGGAAAUACUU (SEQ ID NO: 3) (sense GGCUUUUGACCUUUAUGAATT; antisense TTCCGAAAACUGGAAAUACUU; chemistry not given here; one strand is listed 3' to 5') | neither si5 nor si6 transfection lead to an activation; also recorded: does not activate NF-κB | drastically reduce the expression level; also recorded: reduced to almost undetectable levels; also recorded: very significant reduction in the expression of TLK1 | remain unchanged | p38 is activated by phosphorylation | small effect on cell growth | significant cell death | about 60% | ≤ 1 | about 50% | could not be observed; also recorded: no change in protein synthesis can be detected | significant reduction in mRNA translation; also recorded: drops significantly | – | – | –
2 | si6: control 21-mer siRNA against TLK1 mRNA: GGGUGGAAAUGGCUCAAGUtt (SEQ ID NO: 4) / gtCCCACCUUUACCGAGUUCA (SEQ ID NO: 5) (sense GGGUGGAAAUGGCUCAAGUTT; antisense GTCCCACCUUUACCGAGUUCA; chemistry not given here; one strand is listed 3' to 5') [reference compound] | neither si5 nor si6 transfection lead to an activation | drastically reduce the expression level; also recorded: reduced to almost undetectable levels; also recorded: very significant reduction in the expression of TLK1 | remain unchanged | not | – | – | – | – | – | – | – | no significant toxicity | No inhibition of translation was observed | remained unchanged
